According to the NIST ThermoML archive (doi:10.1016/j.fluid.2012.12.001):

Assay: an = ratio of the nth substance listed
Conditions: for viscosity / mass density: 101 kPa, Liquid; for viscosity: Capillary tube (Ostwald / Ubbelohde) method; for mass density: Vibrating tube method; for surface tension liquid-gas: Capillary rise

CC(O)C(=O)O (centres undefined) [2-hydroxypropanoic acid] + C[N+](C)(C)CCO.[Cl-]
Conditions	mass density [kg/m3]	surface tension liquid-gas [mN/m]	viscosity [mPa·s]
298.15 K, a1 = 1.3	1166.3	–	722.55
298.15 K, a1 = 1.5	1174.9	–	615.62
298.15 K, a1 = 2	1179.3	–	536.28
298.15 K, a1 = 2.5	1184.7	–	494.73
298.15 K, a1 = 3	1189.3	–	437.53
298.15 K, a1 = 3.5	1193.2	–	418.14
298.15 K, a1 = 5	1200.6	–	378.56
298.15 K, a1 = 8	1208	–	341.27
298.15 K, a1 = 10	1211.3	–	321.5
298.15 K, a1 = 15	1173.2	–	226.94
298.2 K, a1 = 2	–	48	–
303.15 K, a1 = 1.3	1163.1	–	508.17
303.15 K, a1 = 1.5	1171.4	–	428.98
303.15 K, a1 = 2	1175.8	–	370.38
303.15 K, a1 = 2.5	1181.1	–	341.17
303.15 K, a1 = 3	1185.6	–	300.21
303.15 K, a1 = 3.5	1189.4	–	285.25
303.15 K, a1 = 5	1196.7	–	254.91
303.15 K, a1 = 8	1204	–	226.58
303.15 K, a1 = 10	1207.1	–	213.35
303.15 K, a1 = 15	1207.1	–	163.42
303.3 K, a1 = 2	–	47.6	–
308.15 K, a1 = 1.3	1160	–	364.59
308.15 K, a1 = 1.5	1168.2	–	304.96
308.15 K, a1 = 2	1172.5	–	263.28
308.15 K, a1 = 2.5	1177.7	–	241.21
308.15 K, a1 = 3	1182.1	–	211.64
308.15 K, a1 = 3.5	1185.9	–	200.01
308.15 K, a1 = 5	1193	–	176.99
308.15 K, a1 = 8	1200.1	–	155.91
308.15 K, a1 = 10	1203	–	146.37
308.15 K, a1 = 15	1203	–	146.37
308.3 K, a1 = 2	–	47.3	–
313.15 K, a1 = 1.3	1157	–	267.49
313.15 K, a1 = 1.5	1165	–	222.55
313.15 K, a1 = 2	1169.3	–	191.68
313.15 K, a1 = 2.5	1174.4	–	174.9
313.15 K, a1 = 3	1178.6	–	153.04
313.15 K, a1 = 3.5	1182.3	–	144.01
313.15 K, a1 = 5	1189.3	–	126.42
313.15 K, a1 = 8	1196.2	–	110.53
313.15 K, a1 = 10	1199	–	103.52
313.15 K, a1 = 15	1199	–	103.52
313.5 K, a1 = 2	–	47	–
318.15 K, a1 = 1.3	1154	–	200.31
318.15 K, a1 = 1.5	1161.9	–	165.87
318.15 K, a1 = 2	1166.2	–	142.7
318.15 K, a1 = 2.5	1171.1	–	129.75
318.15 K, a1 = 3	1175.2	–	113.34
318.15 K, a1 = 3.5	1178.8	–	106.26
318.15 K, a1 = 5	1185.6	–	92.66
318.15 K, a1 = 8	1192.3	–	80.53
318.15 K, a1 = 10	1195	–	75.26
318.15 K, a1 = 15	1195	–	75.26
319.2 K, a1 = 2	–	46.7	–
323.15 K, a1 = 1.3	1151.1	–	152.8
323.15 K, a1 = 1.5	1158.9	–	126.22
323.15 K, a1 = 2	1163	–	108.45
323.15 K, a1 = 2.5	1167.9	–	98.3
323.15 K, a1 = 3	1171.8	–	85.77
323.15 K, a1 = 3.5	1175.3	–	80.16
323.15 K, a1 = 5	1181.9	–	69.53
323.15 K, a1 = 8	1188.4	–	60.12
323.15 K, a1 = 10	1191	–	56.1
323.15 K, a1 = 15	1191	–	56.1
323.5 K, a1 = 2	–	46.5	–
328.15 K, a1 = 1.3	1148.2	–	118.6
328.15 K, a1 = 1.5	1155.8	–	97.77
328.15 K, a1 = 2	1159.9	–	83.99
328.15 K, a1 = 2.5	1164.6	–	75.93
328.15 K, a1 = 3	1168.4	–	66.19
328.15 K, a1 = 3.5	1171.8	–	61.71
328.15 K, a1 = 5	1178.3	–	53.28
328.15 K, a1 = 8	1184.5	–	45.88
328.15 K, a1 = 10	1186.9	–	42.76
328.15 K, a1 = 15	1186.9	–	42.76
328.6 K, a1 = 2	–	46.2	–
333.15 K, a1 = 1.3	1145.3	–	93.55
333.15 K, a1 = 1.5	1152.7	–	76.99
333.15 K, a1 = 2	1156.7	–	66.16
333.15 K, a1 = 2.5	1161.3	–	59.67
333.15 K, a1 = 3	1165	–	52
333.15 K, a1 = 3.5	1168.3	–	48.38
333.15 K, a1 = 5	1174.6	–	41.63
333.15 K, a1 = 8	1180.5	–	35.72
333.15 K, a1 = 10	1182.9	–	33.26
333.15 K, a1 = 15	1182.9	–	33.26
333.2 K, a1 = 2	–	46	–
338.1 K, a1 = 2	–	45.7	–
338.15 K, a1 = 1.3	1142.4	–	74.84
338.15 K, a1 = 1.5	1149.7	–	61.57
338.15 K, a1 = 2	1153.6	–	53.08
338.15 K, a1 = 2.5	1158	–	47.66
338.15 K, a1 = 3	1161.6	–	41.53
338.15 K, a1 = 3.5	1164.8	–	38.58
338.15 K, a1 = 5	1170.9	–	33.1
338.15 K, a1 = 8	1176.6	–	28.33
338.15 K, a1 = 10	1178.8	–	26.35
338.15 K, a1 = 15	1178.8	–	26.35
343.15 K, a1 = 1.3	1139.6	–	60.71
343.15 K, a1 = 1.5	1146.7	–	49.92
343.15 K, a1 = 2	1150.5	–	43.05
343.15 K, a1 = 2.5	1154.8	–	38.64
343.15 K, a1 = 3	1158.2	–	33.66
343.15 K, a1 = 3.5	1161.3	–	31.24
343.15 K, a1 = 5	1167.2	–	26.74
343.15 K, a1 = 8	1172.7	–	22.83
343.15 K, a1 = 10	1174.7	–	21.23
343.15 K, a1 = 15	1174.7	–	21.23
348.15 K, a1 = 1.3	1136.7	–	49.84
348.15 K, a1 = 1.5	1143.7	–	41.01
348.15 K, a1 = 2	1147.4	–	35.4
348.15 K, a1 = 2.5	1151.5	–	31.75
348.15 K, a1 = 3	1154.9	–	27.66
348.15 K, a1 = 3.5	1157.8	–	25.64
348.15 K, a1 = 5	1163.5	–	21.91
348.15 K, a1 = 8	1168.8	–	18.68
348.15 K, a1 = 10	1170.7	–	17.36
348.15 K, a1 = 15	1170.7	–	17.36
353.15 K, a1 = 1.3	1133.9	–	41.4
353.15 K, a1 = 1.5	1140.7	–	34.08
353.15 K, a1 = 2	1144.3	–	29.46
353.15 K, a1 = 2.5	1148.3	–	26.41
353.15 K, a1 = 3	1151.5	–	23.01
353.15 K, a1 = 3.5	1154.2	–	21.32
353.15 K, a1 = 5	1159.8	–	18.2
353.15 K, a1 = 8	1164.8	–	15.49
353.15 K, a1 = 10	1166.7	–	14.38
353.15 K, a1 = 15	1166.7	–	14.38
358.15 K, a1 = 1.3	1131.1	–	34.75
358.15 K, a1 = 1.5	1137.7	–	28.64
358.15 K, a1 = 2	1141.2	–	24.79
358.15 K, a1 = 2.5	1145.1	–	22.22
358.15 K, a1 = 3	1148.1	–	19.37
358.15 K, a1 = 3.5	1150.9	–	17.94
358.15 K, a1 = 5	1156.1	–	15.29
358.15 K, a1 = 8	1160.9	–	13.01
358.15 K, a1 = 10	1162.7	–	12.05
358.15 K, a1 = 15	1162.7	–	12.05
363.15 K, a1 = 1.3	1128.3	–	29.44
363.15 K, a1 = 1.5	1134.7	–	24.31
363.15 K, a1 = 2	1138.1	–	21.08
363.15 K, a1 = 2.5	1141.9	–	18.89
363.15 K, a1 = 3	1144.7	–	16.45
363.15 K, a1 = 3.5	1147.4	–	15.29
363.15 K, a1 = 5	1152.3	–	12.99
363.15 K, a1 = 8	1157.1	–	11.05
363.15 K, a1 = 10	1158.6	–	10.23
363.15 K, a1 = 15	1158.6	–	10.23
